The source of these data is ChEMBL document CHEMBL5674860, “Optimized Dual-Glo Assay to identify co-culture-induced drug vulnerabilities in 3D CRC models” (2024).

Holding throughout (assay type): functional, Homo sapiens
Common to all, as to parameters: dose or concentration left out as unconfirmed

Assay [1] has as its system Colon cancer organoid. The experiment in a line: Optimized Dual-Glo assay to identify co-culture induced drug vulnerabilities using donated chemical probes and chemogenomics kinase set in O06 CRC organoid and F06 CAF mono and co-culture. […] Cell viability is reported both mono and co-culture models.
Assay [2] relates to Colon cancer organoid. The experiment in a line: Optimized Dual-Glo assay to identify co-culture induced drug vulnerabilities using donated chemical probes and chemogenomics kinase set in O14 CRC organoid and F14 CAF mono and co-culture. […] Cell viability is reported both mono and co-culture models.
The subject of assay [3] is Colon cancer organoid. In words: Optimized Dual-Glo assay to identify co-culture induced drug vulnerabilities using donated chemical probes and chemogenomics kinase set in O20 CRC organoid and F20 CAF mono and co-culture. […] Cell viability is reported both mono and co-culture models.
Where [4] appears, read: Culture type Co-Culture, Transduced with Lucferase2-P2A-EGFP lentivirus.
Setting [5] is: Culture type Co-Culture, Transduced with Renilla-dsRed lentivirus.
Where [6] appears, read: Culture type Mono-Culture, Transduced with Lucferase2-P2A-EGFP lentivirus.
Where [7] appears, read: Culture type Mono-Culture, Transduced with Renilla-dsRed lentivirus.

For `O[C@H]1CC[C@H](Nc2ncc3nc(Nc4c(F)cc(F)cc4F)n([C@H]4CCOC4)c3n2)CC1` [TANZISERTIB], the “Cell Viability” value in the assay with Colon cancer organoid [1] (setting [4]) is reported as 96.802%; in the assay on Colon cancer organoid [1] (setting [5]), 109.826%; in the assay on Colon cancer organoid [1] (setting [6]), 106.51%; in the assay with Colon cancer organoid [1] (setting [7]) it was 114.573%; in the assay on Colon cancer organoid [2] (setting [4]), 101.857%; in the assay with Colon cancer organoid [2] (setting [5]), 126.192%. The “Cell Viability” value in the assay on Colon cancer organoid [2] (setting [6]) was 105.608%; in the assay on Colon cancer organoid [2] (setting [7]) it was 109.828%; in the assay on Colon cancer organoid [3] (setting [4]) it was 129.23%; with Colon cancer organoid [3] (setting [5]) it was 97.8883%; with Colon cancer organoid [3] (setting [6]), 76.6269%; in the assay with Colon cancer organoid [3] (setting [7]), 101.702%.
Turning to `Cc1nc(-c2cn3c(n2)-c2ccc(-c4cnn(C(C)(C)C(N)=O)c4)cc2OCC3)n(C(C)C)n1` [TASELISIB], the “Cell Viability” value in the assay with Colon cancer organoid [1] (setting [4]) was found to be 42.3556%; in the assay with Colon cancer organoid [1] (setting [5]) it was 62.2904%; in the assay with Colon cancer organoid [1] (setting [6]), 29.0303%; in the assay with Colon cancer organoid [1] (setting [7]), 59.8749%; with Colon cancer organoid [2] (setting [4]), 25.1108%; with Colon cancer organoid [2] (setting [5]), 133.934%. For the same compound, the “Cell Viability” value in the assay with Colon cancer organoid [2] (setting [6]) is recorded as 29.7364%; with Colon cancer organoid [2] (setting [7]), 65.8836%; in the assay with Colon cancer organoid [3] (setting [4]), 15.8608%; in the assay on Colon cancer organoid [3] (setting [5]), 146.008%; with Colon cancer organoid [3] (setting [6]) it was 9.086%; in the assay with Colon cancer organoid [3] (setting [7]) it was 84.7341%.
As for `COc1cccc2c1c(O)c(C(=O)N(C)c1ccc(C(F)(F)F)cc1)c(=O)n2C` [TASQUINIMOD], the “Cell Viability” value is listed as 78.5663% in the assay on Colon cancer organoid [1] (setting [4]); 130.265% in the assay with Colon cancer organoid [1] (setting [5]); 63.1287% with Colon cancer organoid [1] (setting [6]); 110.699% with Colon cancer organoid [1] (setting [7]); 94.583% with Colon cancer organoid [2] (setting [4]); 144.919% in the assay with Colon cancer organoid [2] (setting [5]). Besides, the “Cell Viability” value came to 82.4794% in the assay on Colon cancer organoid [2] (setting [6]); 97.8059% in the assay with Colon cancer organoid [2] (setting [7]); 63.9822% in the assay with Colon cancer organoid [3] (setting [4]); 99.9703% in the assay with Colon cancer organoid [3] (setting [5]); 87.5673% in the assay on Colon cancer organoid [3] (setting [6]); 108.719% with Colon cancer organoid [3] (setting [7]).
With `C[C@@H]1CCN(C(=O)CC#N)C[C@@H]1N(C)c1ncnc2[nH]ccc12.O=C(O)CC(O)(CC(=O)O)C(=O)O` [TOFACITINIB CITRATE], the “Cell Viability” value with Colon cancer organoid [1] (setting [4]) is on record as 105.115%; in the assay on Colon cancer organoid [1] (setting [5]) it was 91.9737%; in the assay on Colon cancer organoid [1] (setting [6]), 115.164%; in the assay with Colon cancer organoid [1] (setting [7]) it was 114.62%; in the assay with Colon cancer organoid [2] (setting [4]), 119.294%; with Colon cancer organoid [2] (setting [5]) it was 99.6774%. Besides, the “Cell Viability” value came out at 102.323% with Colon cancer organoid [2] (setting [6]); 98.8919% in the assay with Colon cancer organoid [2] (setting [7]); 115.032% in the assay with Colon cancer organoid [3] (setting [4]); 86.9545% in the assay on Colon cancer organoid [3] (setting [5]); 89.5356% with Colon cancer organoid [3] (setting [6]); 81.856% with Colon cancer organoid [3] (setting [7]).
On to `CCC(=O)N1CCN(c2ccc(-n3c(=O)ccc4cnc5ccc(-c6cnc7ccccc7c6)cc5c43)cc2C(F)(F)F)CC1` [TORIN1], for which the “Cell Viability” value in the assay with Colon cancer organoid [1] (setting [4]) is 4.705%; in the assay with Colon cancer organoid [1] (setting [5]), 40.1911%; in the assay with Colon cancer organoid [1] (setting [6]), 4.406%; in the assay with Colon cancer organoid [1] (setting [7]), 17.8443%; in the assay on Colon cancer organoid [2] (setting [4]), 6.678%; in the assay on Colon cancer organoid [2] (setting [5]), 21.6908%. The “Cell Viability” value is 9.433% with Colon cancer organoid [2] (setting [6]); 15.03% in the assay with Colon cancer organoid [2] (setting [7]); 7.384% in the assay with Colon cancer organoid [3] (setting [4]); 44.8651% in the assay with Colon cancer organoid [3] (setting [5]); 4.069% in the assay with Colon cancer organoid [3] (setting [6]); 24.9993% with Colon cancer organoid [3] (setting [7]).
In the case of `Cc1cnc(-c2cc(Cl)ccc2F)cc1-n1c(=O)n(CC(N)=O)c2cnccc21` [TP-008], the “Cell Viability” value in the assay on Colon cancer organoid [1] (setting [4]) turned out to be 13.7504%; in the assay with Colon cancer organoid [1] (setting [5]) it was 213.932%; in the assay with Colon cancer organoid [1] (setting [6]), 47.0575%; in the assay on Colon cancer organoid [1] (setting [7]), 82.299%; in the assay on Colon cancer organoid [2] (setting [4]) it was 97.8203%; with Colon cancer organoid [2] (setting [5]), 116.603%. Moreover, the “Cell Viability” value in the assay with Colon cancer organoid [2] (setting [6]) stood at 124.72%; in the assay with Colon cancer organoid [2] (setting [7]), 98.4627%; in the assay on Colon cancer organoid [3] (setting [4]), 64.1613%; in the assay with Colon cancer organoid [3] (setting [5]) it was 114.054%; in the assay with Colon cancer organoid [3] (setting [6]), 79.9392%; in the assay with Colon cancer organoid [3] (setting [7]), 106.384%.
As for `Cn1nc(C(F)(F)F)cc1-c1cnc(N2CCc3cc(S(=O)(=O)Nc4c(F)cc(Cl)cc4F)cc(N4CCCC4=O)c32)nc1` [TP-020], the “Cell Viability” value in the assay on Colon cancer organoid [1] (setting [4]) is 112.159%; with Colon cancer organoid [1] (setting [5]), 131.656%; with Colon cancer organoid [1] (setting [6]) it was 120.125%; with Colon cancer organoid [1] (setting [7]), 102.548%; in the assay on Colon cancer organoid [2] (setting [4]), 84.372%; in the assay with Colon cancer organoid [2] (setting [5]) it was 107.562%. Further, the “Cell Viability” value came out at 84.9301% with Colon cancer organoid [2] (setting [6]); 79.7114% with Colon cancer organoid [2] (setting [7]); 86.7802% in the assay with Colon cancer organoid [3] (setting [4]); 95.2287% in the assay with Colon cancer organoid [3] (setting [5]); 142.794% in the assay with Colon cancer organoid [3] (setting [6]); 105.743% in the assay with Colon cancer organoid [3] (setting [7]).
With `Cc1cc(-n2nc(Cc3cc(F)cc(C(F)(F)F)c3)nc2C)ccc1C(N)=O` [TP-024], the “Cell Viability” value in the assay on Colon cancer organoid [1] (setting [4]) was 141.247%; in the assay with Colon cancer organoid [1] (setting [5]) it was 165.614%; in the assay on Colon cancer organoid [1] (setting [6]), 109.141%; in the assay on Colon cancer organoid [1] (setting [7]), 106.563%; in the assay on Colon cancer organoid [2] (setting [4]), 111.425%; with Colon cancer organoid [2] (setting [5]), 96.0369%. Further, the “Cell Viability” value with Colon cancer organoid [2] (setting [6]) turned out to be 116.033%; with Colon cancer organoid [2] (setting [7]) it was 105.901%; with Colon cancer organoid [3] (setting [4]) it was 120.055%; with Colon cancer organoid [3] (setting [5]), 118.791%; with Colon cancer organoid [3] (setting [6]), 103.637%; in the assay with Colon cancer organoid [3] (setting [7]), 122.989%.
As for `CC1CCN(c2ccnc(NCc3cn(C)cn3)n2)CC1` [TP-040], the “Cell Viability” value with Colon cancer organoid [1] (setting [4]) came to 72.882%; in the assay with Colon cancer organoid [1] (setting [5]) it was 83.2209%; with Colon cancer organoid [1] (setting [6]), 105.865%; in the assay on Colon cancer organoid [1] (setting [7]), 110.509%; with Colon cancer organoid [2] (setting [4]), 87.8979%; in the assay with Colon cancer organoid [2] (setting [5]) it was 100.433%. The “Cell Viability” value in the assay on Colon cancer organoid [2] (setting [6]) was 106.891%; in the assay with Colon cancer organoid [2] (setting [7]), 94.952%; in the assay on Colon cancer organoid [3] (setting [4]) it was 75.5826%; in the assay with Colon cancer organoid [3] (setting [5]) it was 95.0735%; in the assay on Colon cancer organoid [3] (setting [6]) it was 105.645%; with Colon cancer organoid [3] (setting [7]), 103.982%.
Take `CN1CCN(c2ccnc(NCCc3ccccc3)n2)CC1` [TP-040n]: the “Cell Viability” value is listed as 79.4477% in the assay with Colon cancer organoid [1] (setting [4]); 81.2059% in the assay with Colon cancer organoid [1] (setting [5]); 106.155% in the assay on Colon cancer organoid [1] (setting [6]); 134.56% with Colon cancer organoid [1] (setting [7]); 93.1561% in the assay with Colon cancer organoid [2] (setting [4]); 99.6193% in the assay on Colon cancer organoid [2] (setting [5]). The “Cell Viability” value in the assay on Colon cancer organoid [2] (setting [6]) stood at 147.697%; in the assay with Colon cancer organoid [2] (setting [7]), 101.671%; in the assay with Colon cancer organoid [3] (setting [4]) it was 67.1911%; in the assay with Colon cancer organoid [3] (setting [5]), 97.5889%; in the assay with Colon cancer organoid [3] (setting [6]) it was 115.175%; in the assay with Colon cancer organoid [3] (setting [7]) it was 123.14%.
